Legend:
[1] = test system: heat induced tail flicking latency; assay: Tail immersion test; assay type: in vivo; conditions: mice; for tail flicking latency: after 90 min, without Naloxone
Procedure: Group I: Control, Group II-XV: WE-1 to WE-7 (sample compounds) at dose of 10 mg/kg and 20 mg/kg and Group XVI: Standard. The control (Group I) was given normal saline. Group II-XV received 10 mg/kg and 20 mg/kg of test sample (WE-1 to WE-7).
(§1) The cut-off time was set at 25 s, and the time taken for the mice to flick their tails out of the water was recorded at 30, 60, 90, and 120-min intervals. An increase in the time of tail immersion was compared to the control group to determine the analgesic effect of the tested drugs. The percentage of inhibition was calculated at the time interval showing the highest effect.

[2] = test system: opioid receptors (tail flicking latency); assay: Assessment of opioid mechanism via tail immersion test with Naloxone; assay type: in vivo; conditions: mice; for Latency response 30 min: control 3.14 ± 0.31; for Latency response 60 min: control 3.17 ± 0.41; for Latency response 120 min: control 3.20 ± 0.29; for Latency response 90 min: control 3.31 ± 0.44
Procedure: as §1
To verify the involvement of the opioid mechanism, following the approach outlined in the published study. […] These derivatives were assessed for their potential opioid activity within the control, sample compounds and standard groups using the tail immersion test.

Question: With `COc1ccc(C=C2Oc3ccccc3C2=O)cc1OC` [WE-4, 2-(3,4-dimethoxybenzylidene)benzofuran-3(2H)-one] as the compound, how does the tail flicking latency ([1]; 10 mg/kg) read?
Answer: The tail flicking latency was 11.23 ± 0.93.

Question: What about the “percentage inhibition of pain, tail immersion” value ([1]; 20 mg/kg oral, at interval of highest effect) of the same compound?
Answer: Its value is 74.31%.

Question: And the tail flicking latency ([1]; 20 mg/kg)?
Answer: Its tail flicking latency is 13.41 ± 1.21.

Question: And the “Latency response 30 min” value ([2]; 10 mg/kg + Naloxone 2 mg/kg)?
Answer: The value was 3.60 ± 0.61.

Question: And the “Latency response 60 min” value ([2]; 10 mg/kg + Naloxone 2 mg/kg)?
Answer: Its value is 4.49 ± 0.43.

Question: What about the “Latency response 120 min” value ([2]; 10 mg/kg + Naloxone 2 mg/kg) of the same compound?
Answer: Its value is 3.80 ± 0.49.

Question: And the “Latency response 90 min” value ([2]; 10 mg/kg + Naloxone 2 mg/kg)?
Answer: The value was 5.30 ± 0.48.

Question: And the “Latency response 30 min” value ([2]; 20 mg/kg + Naloxone 2 mg/kg)?
Answer: Its value is 3.41 ± 0.48.

Question: What about the “Latency response 60 min” value ([2]; 20 mg/kg + Naloxone 2 mg/kg) of the same compound?
Answer: Its value is 4.67 ± 0.60.

Question: What about the “Latency response 120 min” value ([2]; 20 mg/kg + Naloxone 2 mg/kg) of the same compound?
Answer: The value was 4.03 ± 0.57.

Question: What about the “Latency response 90 min” value ([2]; 20 mg/kg + Naloxone 2 mg/kg) of the same compound?
Answer: The value was 4.80 ± 0.61.

Reference: PMC11058299, “Synthesis, molecular docking evaluation for LOX and COX-2 inhibition and determination of in-vivo analgesic potentials of aurone derivatives” (Heliyon, 2024)
